Experimental data published in patent publication US12616711B2, “Therapeutic dendrimer” (Starpharma Pty Ltd, priority 2019, dated 2026).

Experiments:
[1] = system: CAPAN-1 tumour xenografts; assay: CAPAN-1 mouse xenograft, alone or with Abraxane or DEP-DTX (Examples 13a, 13b); assay type: in vivo; settings: day 29; i.v.; Gemcitabine 120, Abraxane 40, 3 at 6.5, 6 at 5 (day 1) then 4, DEP-DTX 24 (10 in combination) mg/kg
Method: Mice were inoculated and tumours sized as described above. On day nineteen after implantation, mice with similar sized tumours (mean tumour volume 100 mm^3) were randomised into 7 groups of 10 animals. […] Abraxane® was dissolved in saline solution immediately prior to dosing.
Abraxane®, gemcitabine and dendrimers were administered at days 1, 10, and 17 via tail vein i.v. injection, at 0.1 ml/10 g body weight.
In an extension of Example 13a, two additional groups of mice were prepared and dosed to assess the anti-tumour efficacy properties of a taxane-dendrimer combined with a nucleoside analogue-dendrimer (e.g. 6). Mice were inoculated and tumours sized as described above.
Dendrimers were administered weekly via tail vein i.v. injection, at 0.1 ml/10 g body weight for 3 weeks.
All statistical analyses were performed using GraphPad Prism 8.1.

[2] = system: H460 cells; assay: alamarBlue viability assay, GI50; assay type: cell-based; settings: given in μM Gemcitabine
Method: (§1) A study was carried out to determine the ability of example dendrimers to inhibit growth of cancer cell lines using an alamarBlue viability assay (Thermo Fisher, DAL1025).
(§2) The cytotoxicity of compounds toward MDA-MB-231, A549, H460, BxPC3 and CAPAN-1 cells were evaluated for viability. Cells were seeded at a density of 1.2-5×10^3 cells, dependent on cell growth rate, in 96 well plates and incubated overnight. Cells were then treated with serial dilutions of test compositions for 72 h (MDA-MB-231, A549 and H460 lines) or 144 h (BxPC3 and CAPAN-1 lines). For cell viability analysis, 10% media volume of alamar Blue was added during the final 6-8 h of incubation. Reduction of alamarBlue in living cells yields a red fluorescent metabolite that can be read on a plate reader (560 nm excitation/610 nm emission.). Cell viability and subsequent GI50 values were was determined from the blank corrected dose-response curves, with 4-parameter nonlinear curve fit, in GraphPad Prism.

[3] = system: BxPC3 cells; assay: alamarBlue viability assay, GI50; assay type: cell-based; settings: BxPC-3, 144 h, given in μM Gemcitabine
Method: as §1, §2

[4] = system: MDA-MB-231 cells; assay: alamarBlue viability assay, GI50; assay type: cell-based; settings: 72 h, given in μM Gemcitabine
Method: as §1, §2

[5] = system: A549 cells; assay: alamarBlue viability assay, GI50; assay type: cell-based, human; settings: 72 h, given in μM Gemcitabine
Method: as §1, §2

[6] = system: CAPAN-1 cells; assay: alamarBlue viability assay, GI50; assay type: cell-based, human; settings: 144 h, given in μM Gemcitabine
Method: as §1, §2

[7] = system: CAPAN-1 tumour xenografts; assay: CAPAN-1 mouse xenograft pancreatic cancer model, efficacy vs gemcitabine (Example 11); assay type: in vivo; settings: for Tumour Growth inhibition (%) v vehicle: day 29, Gemcitabine 120, 1 at 2, 4 at 5, 2 at 5, 5 at 3 mg/kg; for Tumour Growth inhibition (%) v vehicle / effect on CAPAN-1 tumours over the dosing study (FIG. 4): i.v. twice weekly for 3 weeks; for survival compared to Gemcitabine (Kaplan-Meier): P<0.0001 Mantel Cox, Gemcitabine 120 mg/kg; for effect on CAPAN-1 tumours over the dosing study (FIG. 4): 4 at 5, 2 at 5, 5 at 3 mg/kg
Method: A CAPAN-1 (human pancreatic adenocarcinoma cell line) mouse xenograft pancreatic cancer model study was carried out to assess the anti-tumour efficacy properties of example dendrimers compared to gemcitabine.
Compounds 1, 4, 2 and 5 were prepared by dissolving in sterile saline solution immediately prior to dosing and. Gemcitabine ((DBL™ Gemcitabine injection, Hospira Pty Ltd.) was further diluted in saline solution prior to dosing.
Female NOD-SCID Interleukin-2 receptor gamma chain null mice (aged 9 weeks) were inoculated subcutaneously on the flank with 5×10^6 CAPAN-1 cells in PBS:Matrigel (1:1). Mice were weighed and tumours measured twice weekly using electronic callipers. Tumour volume (mm^3) was calculated as length (mm)/2×width (mm)^2. On day seventeen after implantation, mice with similar sized tumours (mean tumour volume 100 mm^3) were randomised into 6 groups of 10 animals.
Compounds were administered via tail vein i.v. injection, twice weekly at […] for 3 weeks. Groups were dosed as follows: • 1. Saline—vehicle • 2. Gemcitabine (120 mg/kg, i.v.) • 3. 1 (2 mg/kg, i.v.) • 4. 4 (5 mg/kg, i.v.) • 5. 2 (5 mg/kg, i.v.) • 6. 5 (3 mg/kg, i.v.)
Tumour growth inhibition was analysed at day 29 (where all vehicle animals remained in the study) using one-way ANOVA followed by Dunnett's multiple comparison test. Tumour growth curves of gemcitabine and DEP-gemcitabine were compared over 47 days (when all treatment group animals remained in the study for tumour-related endpoints) using a mixed-effects model followed by Tukey's multiple comparison test. […] All statistical analysis was performed using GraphPad Prism 8.1.

[8] = Plasma release study; assay type: in vitro ADME; settings: 37° C.
Method: The plasma was placed in a CO2 incubator at 3% CO2 at 42% relative humidity to reach a pH of 7.4.
Gemcitabine HCl (28.5 mg) was dissolved in Milli Q water and the resulting stock solution transferred to a 5 mL volumetric flask and diluted to provide working standard solutions.
The plasma release study was conducted by adding 1 mL of plasma (centrifuged and filtered) to 0.2 mL of dendrimer solution (approximately 2 mg/mL gemcitabine equivalent in miliQ water) for example dendrimers and a comparator. The mixtures were vortexed (30 sec) then incubated at 37° C. 5% CO2. At various timepoints aliquots (0.1 mL) were removed and added to ACN (0.2 mL). The resulting mixtures were vortexed (30 s), centrifuged (10 min, 4° C.), filtered and analysed by HPLC (C8 Xbridge, 3×100 mm, […], 0.4 mL/min., gradient: 5% ACN/H2O) (0-1 min), 5-80% ACN (1-7 min), 80% ACN (7-12 min), 80-5% ACN (12-13 min), 5% ACN (13-15 min), 100 mM ammonium formate buffer, column temperature 50° C., sample tray 4° C., 260 nm.

[9] = system: CAPAN-1 tumour xenografts; assay: CAPAN-1 mouse xenograft, dosing regimen study (Example 12); assay type: in vivo; settings: 5 mg/kg i.v. weekly for 3 weeks compared to 2 mg/kg i.v. biweekly for 3 weeks
Method: A CAPAN-1 (human pancreatic adenocarcinoma cell line) mouse xenograft pancreatic cancer model was established to assess the effects of weekly compared to biweekly administration of an example dendrimer.
Compound 1 was prepared as described above. Mice were inoculated and tumours sized as described above. On day seventeen after implantation, mice with similar sized tumours (mean tumour volume 140 mm^3) were randomised into 2 groups of 5 animals: • 1. 1 (5 mg/kg, i.v.) weekly for 3 weeks; and • 2. 1 (2 mg/kg, i.v.) biweekly for 3 weeks.

| Compound | Tumour Growth inhibition (%) v vehicle at day 29 [1] | Tumour Growth inhibition (%) v vehicle [7] | GI50 [4] | GI50 [5] | GI50 ([2]; 72 h) | GI50 [3] | GI50 [6] | survival compared to Gemcitabine (Kaplan-Meier) [7] | effect on CAPAN-1 tumours over the dosing study (FIG. 4) [7] | further results |
| --- | --- | --- | --- | --- | --- | --- | --- | --- | --- | --- |
| BHALys[Lys]32[α-TDA-DTX]32[ε-PolyPEG2000]32 [DEP-DTX, reference compound] | 108% | – | – | – | – | – | – | – | – | – |
| Nc1ccn([C@@H]2O[C@H](CO)[C@@H](O)C2(F)F)c(=O)n1 [Gemcitabine, gemcitabine, reference compound] | 59% | 84% | – | – | – | – | – | – | – | GI50 ([2]; Homo sapiens, NCI-H460, 72 h): 0.042 µM; GI50 ([3]; Homo sapiens): 0.009 µM; GI50 ([4]; Homo sapiens): 0.004 µM; GI50 ([5]; Homo sapiens): 0.011 µM; GI50 ([6]; Homo sapiens): 0.009 µM |
| [BHA Lys][Lys]30[Lys]32 [Compound 8, [BHA Lys][Lys]30[Lys]32 [(α-NH-Glu-Gemcitabine)32 (ε-NHPEG˜2100)32]] | – | – | 0.103 µM | 0.5 µM | – | – | – | – | – | Human Plasma % release ([8]; 0 h): −0.17%; Human Plasma % release ([8]; 2 h): 0.22%; Human Plasma % release ([8]; 4 h): −1.99%; Human Plasma % release ([8]; 6 h): 3.02%; Human Plasma % release ([8]; 24 h): 6.19%; Human Plasma % release ([8]; 30 h): 5.39% |
| [BHA Lys][Lys]30[Lys]32 [Compound 6, [BHA Lys][Lys]30[Lys]32 [(α-NH-DGA-Gemcitabine)32 (ε-NHPEG˜2100)32]] | 83% | – | 0.005 µM | 0.045 µM | 0.056 µM | 0.001 µM | 0.006 µM | – | – | Human Plasma % release ([8]; 0 h): 0.49%; Human Plasma % release ([8]; 2 h): 9.94%; Human Plasma % release ([8]; 4 h): 18.18%; Human Plasma % release ([8]; 6 h): 39.84%; Human Plasma % release ([8]; 24 h): 71.13%; Human Plasma % release ([8]; 30 h): 77.98% |
| [BHA Lys][Lys]30[Lys]32 [Compound 5, [BHA Lys][Lys]30[Lys]32 [(α-NH-DGA-Gemcitabine)32 (ε-NHPEG˜1100)32]] | – | 94% | 0.003 µM | 0.044 µM | 0.046 µM | – | 0.003 µM | significantly extended survival beyond that of Gemcitabine | complete stasis | – |
| [BHA Lys][Lys]30[Lys]32 [Compound 2, [BHA Lys][Lys]30[Lys]32 [(α-NH-TDA-Gemcitabine)32 (ε-NHPEG570)32]] | – | 94% | 0.004 µM | 0.034 µM | 0.412 µM | – | 0.021 µM | significantly extended survival beyond that of Gemcitabine | complete stasis | – |
| [BHA Lys][Lys]30[Lys]32 [Compound 4, [BHA Lys][Lys]30[Lys]32 [(α-NH-DGA-Gemcitabine)32 (ε-NHPEG˜570)32]] | – | 91% | 0.003 µM | 0.031 µM | 0.061 µM | 0.013 µM | 0.011 µM | significantly extended survival beyond that of Gemcitabine | complete stasis | – |
| [BHA Lys][Lys]30[Lys]32 [Compound 1, [BHA Lys][Lys]30[Lys]32 [(α-NH-TDA-Gemcitabine)32 (ε-NHPEG˜1100)32]] | – | 75% | – | 0.051 µM | 0.215 µM | 0.007 µM | 0.033 µM | – | – | suppression of tumour growth, weekly vs biweekly regimen (FIG. 5) [9]: more effective at suppressing tumour growth than 1, given biweekly at 2 mg/kg |
